System: dissociated dorsal ganglion sensory neurons
Experiment: Sensitization assay: capsaicin-induced Calcium Imaging response after sensitizing cocktail
Assay type: cell-based, mouse
Conditions: co-incubation with various doses of compound (0.002-1000 nM); sensitizing cocktail NGF, GDNF, PGE2, 1β; 3rd capsaicin-induced peak, Fura-2 f340/f380; FIG. 1
Text: Capsaicin, the active ingredient in pepper sprays, is an irritant that causes noxious respiratory sensations and reflexes including sneezing and coughing in humans. Capsaicin binds to Transient Receptor Potential Vanilloid 1 (TRPV1), whose expression is enriched in both somatic and visceral nociceptors. Exaggerated response to inhaled capsaicin can be seen in subjects with IPF or with cough hypersensitivity syndrome and can be used as a test. Increased reactivity to capsaicin is generally considered a marker of sensitization of nociceptors. Capsaicin effects in sensory neurons dissected from mouse peripheral ganglia can be used as a model to identify nociceptors and to study the sensitization mechanisms in vitro. Response to capsaicin can be quantified in a relatively large population of dissociated sensory neurons using the method of Calcium Imaging. […]
Each point represents how well the capsaicin-induced peak is reduced by the drug when compared with negative control (1, no sensitizing solution, no GSK-1) and positive control (0, sensitizing solution, no GSK-1). Calculated, it is:
Where C=the average relative f340/f380 value of peak 3 for the sensitization control (sensitizing solution, no GSK-1). X=the individual relative f340/f380 value to be calculated, and N=the average relative f340/f380 value of peak 3 for the negative control (no sensitization solution, no GSK-1).

Q: Which “Effect on enhancement of the Calcium Imaging response to capsaicin by the sensitizing cocktail” value does the source give for `COc1ncc(-c2ccc3ncnc(N4CCOCC4)c3c2)cc1NS(=O)(=O)c1ccc(F)cc1F` [GSK-1, 2,4-difluoro-N-{2-(methyloxy)-5-[4-(4-morpholinyl)-6-quinazolinyl]-3-pyridinyl}benzenesulfonamide] here?
A: dose-dependently abolished

Reference: patent publication US20150031702A1, “PI3K INHIBITORS FOR TREATING COUGH” (GlaxoSmithkline Intellectual Property (No.2) Limited, priority 2012, published 2015)
